Data on two molecules can be found in PMC9116130 (Biochemical pharmacology, 2020).

The target in one data set is hNaV1.1 (Homo sapiens, UniProt P35498). The data set can be described thus: Two-electrode voltage-clamp on Xenopus laevis oocytes expressing NaV1.1. For orientation: Two-electrode voltage clamp is typically applied to oocytes expressing channels or transporters.
The next data set deals with rNaV1.2 (Rattus norvegicus, UniProt P04775). The data set can be described thus: Two-electrode voltage-clamp on Xenopus laevis oocytes expressing NaV1.2.
A further data set has as its target rNaV1.3 (Rattus norvegicus, UniProt P08104). Kind of data set: Two-electrode voltage-clamp on Xenopus laevis oocytes expressing NaV1.3.
A further data set addresses rNaV1.4 (Rattus norvegicus, UniProt P15390). The data set can be described thus: Two-electrode voltage-clamp on Xenopus laevis oocytes expressing NaV1.4.
For a further data set, the target named is hNaV1.5 (Homo sapiens, UniProt Q14524). The data set can be described thus: Two-electrode voltage-clamp on Xenopus laevis oocytes expressing NaV1.5.
Chain of hNaV1.5 (Q14524 whole entry): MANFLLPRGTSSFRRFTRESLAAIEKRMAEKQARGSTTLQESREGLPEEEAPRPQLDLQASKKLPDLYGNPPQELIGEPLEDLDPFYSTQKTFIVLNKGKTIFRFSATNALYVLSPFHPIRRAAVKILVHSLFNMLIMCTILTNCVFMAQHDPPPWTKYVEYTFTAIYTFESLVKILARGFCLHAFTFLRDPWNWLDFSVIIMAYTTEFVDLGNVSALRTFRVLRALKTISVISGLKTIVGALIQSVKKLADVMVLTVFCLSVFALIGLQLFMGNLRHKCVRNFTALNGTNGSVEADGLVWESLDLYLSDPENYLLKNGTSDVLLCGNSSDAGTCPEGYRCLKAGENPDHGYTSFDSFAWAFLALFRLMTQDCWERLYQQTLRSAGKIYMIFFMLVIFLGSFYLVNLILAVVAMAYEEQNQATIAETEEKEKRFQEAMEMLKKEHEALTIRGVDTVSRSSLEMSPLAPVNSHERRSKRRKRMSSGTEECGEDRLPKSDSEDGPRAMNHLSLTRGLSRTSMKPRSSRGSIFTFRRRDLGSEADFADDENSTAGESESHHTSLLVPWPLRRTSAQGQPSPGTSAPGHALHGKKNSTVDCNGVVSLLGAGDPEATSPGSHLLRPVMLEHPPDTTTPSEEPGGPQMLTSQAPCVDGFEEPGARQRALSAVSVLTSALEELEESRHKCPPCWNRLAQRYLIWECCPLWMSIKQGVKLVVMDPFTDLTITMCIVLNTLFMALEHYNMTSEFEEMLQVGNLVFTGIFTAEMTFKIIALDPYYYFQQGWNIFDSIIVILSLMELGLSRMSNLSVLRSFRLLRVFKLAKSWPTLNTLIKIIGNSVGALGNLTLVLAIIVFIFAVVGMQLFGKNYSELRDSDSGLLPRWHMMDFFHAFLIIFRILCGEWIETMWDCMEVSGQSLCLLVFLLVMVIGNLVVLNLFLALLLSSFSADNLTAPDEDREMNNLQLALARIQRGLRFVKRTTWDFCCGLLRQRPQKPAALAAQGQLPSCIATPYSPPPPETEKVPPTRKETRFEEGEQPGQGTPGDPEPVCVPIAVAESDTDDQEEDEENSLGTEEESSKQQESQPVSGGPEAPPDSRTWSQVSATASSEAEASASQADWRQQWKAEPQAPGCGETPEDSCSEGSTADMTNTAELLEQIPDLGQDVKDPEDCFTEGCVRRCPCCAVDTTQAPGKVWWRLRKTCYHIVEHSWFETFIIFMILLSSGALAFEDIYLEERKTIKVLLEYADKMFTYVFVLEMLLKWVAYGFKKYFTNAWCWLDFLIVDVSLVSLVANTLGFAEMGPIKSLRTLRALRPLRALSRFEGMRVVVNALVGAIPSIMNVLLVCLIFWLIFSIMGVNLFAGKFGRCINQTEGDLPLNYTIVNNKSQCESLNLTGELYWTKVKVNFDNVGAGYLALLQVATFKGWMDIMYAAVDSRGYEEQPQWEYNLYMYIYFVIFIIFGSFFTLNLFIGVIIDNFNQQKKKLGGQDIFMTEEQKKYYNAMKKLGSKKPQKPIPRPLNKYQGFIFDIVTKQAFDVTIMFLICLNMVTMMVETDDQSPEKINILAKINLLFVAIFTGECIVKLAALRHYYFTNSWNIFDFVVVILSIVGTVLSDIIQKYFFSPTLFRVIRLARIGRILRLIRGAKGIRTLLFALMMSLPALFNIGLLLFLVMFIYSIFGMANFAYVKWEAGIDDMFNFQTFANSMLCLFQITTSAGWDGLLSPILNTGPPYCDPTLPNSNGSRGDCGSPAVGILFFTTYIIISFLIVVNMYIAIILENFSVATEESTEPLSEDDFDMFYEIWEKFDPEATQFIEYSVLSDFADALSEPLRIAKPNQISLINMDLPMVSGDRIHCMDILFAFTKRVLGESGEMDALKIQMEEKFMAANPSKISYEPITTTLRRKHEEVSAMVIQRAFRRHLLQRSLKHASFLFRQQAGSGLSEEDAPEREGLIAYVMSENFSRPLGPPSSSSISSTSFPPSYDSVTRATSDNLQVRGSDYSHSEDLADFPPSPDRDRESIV
Another data set addresses mNaV1.6 (Mus musculus, UniProt Q9WTU3). Kind of data set: Two-electrode voltage-clamp on Xenopus laevis oocytes expressing NaV1.6.
A further data set concerns the target rNaV1.7 (Rattus norvegicus, UniProt O08562). The data set can be described thus: Two-electrode voltage-clamp on Xenopus laevis oocytes expressing NaV1.7.
In a further data set the target is rNaV1.8 (Rattus norvegicus, UniProt Q62968). The data set can be described thus: Two-electrode voltage-clamp on Xenopus laevis oocytes expressing NaV1.8.
The test system of data set [1] is NaV1.2, NaV1.4, NaV1.5 and NaV1.6. Conditions: 100 μM.
The test system of a further data set is inflammatory pain models. Conditions: in vivo; cited from earlier work.

Where a SMILES comes first, the peptide text is derived from it. Bridges are numbered along the chain shown (N, C = ends).

Chain of rNaV1.4 (P15390 whole entry): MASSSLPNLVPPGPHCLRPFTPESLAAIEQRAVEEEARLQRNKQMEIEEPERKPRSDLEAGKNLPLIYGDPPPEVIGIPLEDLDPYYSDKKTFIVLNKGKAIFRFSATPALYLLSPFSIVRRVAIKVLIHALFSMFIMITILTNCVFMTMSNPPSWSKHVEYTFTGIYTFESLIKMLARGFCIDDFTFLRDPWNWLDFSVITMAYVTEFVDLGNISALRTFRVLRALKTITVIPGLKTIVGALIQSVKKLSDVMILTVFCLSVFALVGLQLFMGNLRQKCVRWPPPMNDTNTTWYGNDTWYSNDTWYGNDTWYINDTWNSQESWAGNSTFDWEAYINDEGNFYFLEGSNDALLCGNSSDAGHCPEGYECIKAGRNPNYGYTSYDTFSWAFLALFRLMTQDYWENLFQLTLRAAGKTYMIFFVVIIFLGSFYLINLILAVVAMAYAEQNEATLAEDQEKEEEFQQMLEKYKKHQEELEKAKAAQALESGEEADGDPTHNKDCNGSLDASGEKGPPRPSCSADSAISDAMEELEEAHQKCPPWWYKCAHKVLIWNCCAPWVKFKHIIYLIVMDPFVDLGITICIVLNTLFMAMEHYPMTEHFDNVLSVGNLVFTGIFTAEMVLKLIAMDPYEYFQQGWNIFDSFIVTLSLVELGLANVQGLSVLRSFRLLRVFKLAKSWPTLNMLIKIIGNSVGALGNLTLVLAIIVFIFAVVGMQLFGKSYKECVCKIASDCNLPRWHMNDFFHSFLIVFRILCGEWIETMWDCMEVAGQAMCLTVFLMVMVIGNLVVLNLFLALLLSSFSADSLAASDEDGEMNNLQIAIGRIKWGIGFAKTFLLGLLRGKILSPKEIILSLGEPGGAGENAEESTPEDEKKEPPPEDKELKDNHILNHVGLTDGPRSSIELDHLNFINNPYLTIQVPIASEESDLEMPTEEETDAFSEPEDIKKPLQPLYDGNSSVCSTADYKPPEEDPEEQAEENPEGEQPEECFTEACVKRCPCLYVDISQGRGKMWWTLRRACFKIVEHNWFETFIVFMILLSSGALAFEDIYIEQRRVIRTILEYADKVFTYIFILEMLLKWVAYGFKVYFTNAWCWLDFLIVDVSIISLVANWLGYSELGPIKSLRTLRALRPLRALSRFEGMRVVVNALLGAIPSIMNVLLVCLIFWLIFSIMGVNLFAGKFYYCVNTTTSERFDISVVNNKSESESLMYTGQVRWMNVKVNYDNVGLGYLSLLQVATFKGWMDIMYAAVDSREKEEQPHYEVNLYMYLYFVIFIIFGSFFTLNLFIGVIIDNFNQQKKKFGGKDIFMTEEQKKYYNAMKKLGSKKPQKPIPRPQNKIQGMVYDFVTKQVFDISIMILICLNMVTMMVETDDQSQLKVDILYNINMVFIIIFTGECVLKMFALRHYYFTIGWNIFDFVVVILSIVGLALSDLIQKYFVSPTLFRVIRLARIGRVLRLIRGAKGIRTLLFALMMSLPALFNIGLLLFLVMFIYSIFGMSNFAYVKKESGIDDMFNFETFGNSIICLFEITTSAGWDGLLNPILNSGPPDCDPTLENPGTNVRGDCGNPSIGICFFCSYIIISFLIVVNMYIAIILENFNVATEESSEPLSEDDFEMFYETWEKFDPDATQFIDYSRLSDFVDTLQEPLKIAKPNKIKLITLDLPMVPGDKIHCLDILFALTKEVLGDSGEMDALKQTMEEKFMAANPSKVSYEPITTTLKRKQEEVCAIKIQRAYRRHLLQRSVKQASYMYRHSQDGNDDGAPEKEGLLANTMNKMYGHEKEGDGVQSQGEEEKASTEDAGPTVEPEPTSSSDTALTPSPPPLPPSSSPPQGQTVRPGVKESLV
Chain of rNaV1.4 (Q00954 19-218, further chain): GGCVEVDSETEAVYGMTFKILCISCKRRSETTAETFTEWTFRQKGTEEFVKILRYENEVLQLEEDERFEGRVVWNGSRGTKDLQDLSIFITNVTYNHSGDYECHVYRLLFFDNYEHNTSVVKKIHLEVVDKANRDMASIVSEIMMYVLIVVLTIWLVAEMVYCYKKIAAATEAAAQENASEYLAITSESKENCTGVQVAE

As to `C[C@@H]1NC(=O)[C@H](Cc2c[nH]c3ccccc23)NC(=O)[C@H](CCCNC(=N)N)NC(=O)[C@H](CCCNC(=N)N)NC(=O)[C@@H](N)CSSC[C@@H](C(N)=O)NC(=O)[C@H](CCCNC(=N)N)NC(=O)[C@H](CC(N)=O)NC(=O)[C@H](Cc2ccc(O)cc2)NC(=O)[C@H](CCCNC(=N)N)NC1=O` [PnCS1[W7Y], CRRWARYNRC ^*] (H-CRRWARYNRC-NH2; disulfide 1-10), the IC50 (in general, the concentration needed to halve the response being measured) turned out to be 2200 ± 400 nM against hNaV1.1; 7.4 ± 4.2 µM against rNaV1.2; 4.1 ± 0.8 µM against rNaV1.3; 7.8 ± 3.3 µM against rNaV1.4; 11.7 ± 4.1 µM at hNaV1.5; 700 ± 300 nM on mNaV1.6. The IC50 against rNaV1.7 was 8.2 ± 0.3 µM; against rNaV1.8, more than 100 µM. The inhibition – broadly, how much of the control response was suppressed – at 100 µM was 76% on rNaV1.2 (read-out: Maximum % inhibition NaV1.2, peptide at 100 μM); 73% at rNaV1.4 (read-out: Maximum % inhibition NaV1.4, peptide at 100 μM); 75% at hNaV1.5 (read-out: Maximum % inhibition NaV1.5); 93% on mNaV1.6 (read-out: Maximum % inhibition NaV1.6, peptide at 100 μM); 0% on rNaV1.8 (read-out: Maximum % inhibition NaV1.8). Besides, in data set [1], the “% inhibition, range across NaV1.2, NaV1.4, NaV1.5 and NaV1.6” value was 73–93%.

In the case of μ-Conotoxin KIIIA [μ-KIIIA], the “analgesic activity in inflammatory pain models” value with inflammatory pain models was “analgesic in inflammatory pain models without motor impairment”.
